Results as given in paper doi:10.1101/2021.04.08.439011v1 (biorxiv, 2021).

Legend:
Conditions in all cases: 0.1 µM; binder
OSR1 = OSR1 (Homo sapiens, UniProt O95747)
ITK = ITK (Homo sapiens, UniProt Q08881)
PIP4K2B = PIP4K2B (Homo sapiens, UniProt P78356)
PRKCQ = PRKCQ (Homo sapiens, UniProt Q04759)
HUNK = HUNK (Homo sapiens, UniProt P57058)
p38-alpha = p38-alpha (Homo sapiens, UniProt Q16539)
RET(V804L) = RET(V804L) (Homo sapiens, UniProt P07949, V804L)
NEK4 = NEK4 (Homo sapiens, UniProt P51957)
SNARK = SNARK (Homo sapiens, UniProt Q9H093)
Chain of SNARK (Q9H093 whole entry): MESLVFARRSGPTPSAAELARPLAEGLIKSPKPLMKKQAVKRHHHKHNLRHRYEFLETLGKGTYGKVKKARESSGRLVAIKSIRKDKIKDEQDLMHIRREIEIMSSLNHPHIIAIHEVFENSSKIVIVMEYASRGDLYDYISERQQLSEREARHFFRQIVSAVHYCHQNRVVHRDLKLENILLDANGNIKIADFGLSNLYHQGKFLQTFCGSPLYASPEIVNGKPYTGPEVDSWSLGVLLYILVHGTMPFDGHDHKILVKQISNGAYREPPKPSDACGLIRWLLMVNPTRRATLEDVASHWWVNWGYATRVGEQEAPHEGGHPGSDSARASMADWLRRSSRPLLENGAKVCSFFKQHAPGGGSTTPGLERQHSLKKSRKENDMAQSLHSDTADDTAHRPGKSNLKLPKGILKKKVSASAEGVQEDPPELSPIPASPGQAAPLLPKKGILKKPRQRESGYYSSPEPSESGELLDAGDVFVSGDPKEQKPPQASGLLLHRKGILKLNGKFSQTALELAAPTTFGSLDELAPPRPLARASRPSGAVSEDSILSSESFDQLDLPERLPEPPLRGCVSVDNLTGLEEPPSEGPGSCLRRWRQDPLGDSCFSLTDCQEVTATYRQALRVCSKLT

TTK = TTK (Homo sapiens, UniProt P33981)
DAPK3 = DAPK3 (Homo sapiens, UniProt O43293)
MAPKAPK2 = MAPKAPK2 (Homo sapiens, UniProt P49137)
Chain of MAPKAPK2 (P49137 whole entry): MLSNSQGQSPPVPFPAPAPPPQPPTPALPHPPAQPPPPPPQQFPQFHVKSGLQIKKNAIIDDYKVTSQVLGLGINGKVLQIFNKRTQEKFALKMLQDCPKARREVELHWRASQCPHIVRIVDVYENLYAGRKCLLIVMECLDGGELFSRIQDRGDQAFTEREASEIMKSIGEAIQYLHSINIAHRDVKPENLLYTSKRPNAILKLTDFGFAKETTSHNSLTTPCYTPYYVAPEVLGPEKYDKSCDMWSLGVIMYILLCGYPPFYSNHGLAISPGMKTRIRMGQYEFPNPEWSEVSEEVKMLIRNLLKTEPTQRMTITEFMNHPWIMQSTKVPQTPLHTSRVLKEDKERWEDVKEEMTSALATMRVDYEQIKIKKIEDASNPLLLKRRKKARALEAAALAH

PDGFRB = PDGFRB (Homo sapiens, UniProt P09619)
KIT(L576P) = KIT(L576P) (Homo sapiens, UniProt P10721, L576P)
RIOK1 = RIOK1 (Homo sapiens, UniProt Q9BRS2)
WEE2 = WEE2 (Homo sapiens, UniProt P0C1S8)
AKT3 = AKT3 (Homo sapiens, UniProt Q9Y243)
AMPK-alpha2 = AMPK-alpha2 (Homo sapiens, UniProt P54646)
Chain of AMPK-alpha2 (P54646 whole entry): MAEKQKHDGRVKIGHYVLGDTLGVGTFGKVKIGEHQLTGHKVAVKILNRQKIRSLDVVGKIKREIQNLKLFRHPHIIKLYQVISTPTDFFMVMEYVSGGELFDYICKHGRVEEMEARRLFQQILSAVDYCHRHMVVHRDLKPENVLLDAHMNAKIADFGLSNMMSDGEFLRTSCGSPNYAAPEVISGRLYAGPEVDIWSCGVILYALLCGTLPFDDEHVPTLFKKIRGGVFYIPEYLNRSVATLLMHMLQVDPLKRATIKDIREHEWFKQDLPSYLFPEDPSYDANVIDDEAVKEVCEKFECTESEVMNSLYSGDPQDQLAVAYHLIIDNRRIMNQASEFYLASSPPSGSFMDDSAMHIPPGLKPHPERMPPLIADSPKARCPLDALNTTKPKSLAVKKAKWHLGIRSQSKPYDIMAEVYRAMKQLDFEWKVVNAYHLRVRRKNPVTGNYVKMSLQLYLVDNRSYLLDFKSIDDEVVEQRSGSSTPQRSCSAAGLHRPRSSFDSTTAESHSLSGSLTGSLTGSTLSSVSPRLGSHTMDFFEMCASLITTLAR

ULK1 = ULK1 (Homo sapiens, UniProt O75385)
Chain of ULK1 (O75385 whole entry): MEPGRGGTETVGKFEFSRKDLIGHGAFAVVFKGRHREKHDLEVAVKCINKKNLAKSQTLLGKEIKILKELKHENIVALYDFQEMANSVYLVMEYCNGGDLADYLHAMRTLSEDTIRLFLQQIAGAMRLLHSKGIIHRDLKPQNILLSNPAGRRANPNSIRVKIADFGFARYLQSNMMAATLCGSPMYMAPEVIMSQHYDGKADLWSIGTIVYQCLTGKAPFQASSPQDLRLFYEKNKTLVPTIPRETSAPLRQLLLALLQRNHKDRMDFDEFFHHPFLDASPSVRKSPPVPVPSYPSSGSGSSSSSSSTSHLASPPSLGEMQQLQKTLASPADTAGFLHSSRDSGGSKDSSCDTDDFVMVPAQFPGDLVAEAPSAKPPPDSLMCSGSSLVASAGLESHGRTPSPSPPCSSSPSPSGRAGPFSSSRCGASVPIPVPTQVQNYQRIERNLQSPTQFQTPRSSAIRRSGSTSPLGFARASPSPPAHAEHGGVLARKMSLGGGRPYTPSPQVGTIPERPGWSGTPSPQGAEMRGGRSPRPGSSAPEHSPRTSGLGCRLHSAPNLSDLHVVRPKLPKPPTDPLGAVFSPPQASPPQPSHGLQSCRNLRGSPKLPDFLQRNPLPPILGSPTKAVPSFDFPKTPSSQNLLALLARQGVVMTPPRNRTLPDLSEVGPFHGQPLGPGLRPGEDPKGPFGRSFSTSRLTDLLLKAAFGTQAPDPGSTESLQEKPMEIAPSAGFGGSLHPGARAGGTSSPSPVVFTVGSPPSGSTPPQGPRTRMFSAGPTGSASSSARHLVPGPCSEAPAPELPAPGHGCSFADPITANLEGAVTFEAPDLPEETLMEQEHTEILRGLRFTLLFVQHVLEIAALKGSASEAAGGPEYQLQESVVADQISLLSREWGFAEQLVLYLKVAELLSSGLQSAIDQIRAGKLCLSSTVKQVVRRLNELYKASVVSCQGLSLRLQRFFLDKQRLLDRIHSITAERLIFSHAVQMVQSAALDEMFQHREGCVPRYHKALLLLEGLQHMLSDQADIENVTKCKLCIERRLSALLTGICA

AMPK-alpha1 = AMPK-alpha1 (Homo sapiens, UniProt Q13131)
CSNK1D = CSNK1D (Homo sapiens, UniProt P48730)
EPHB1 = EPHB1 (Homo sapiens, UniProt P54762)
PIM2 = PIM2 (Homo sapiens, UniProt Q9P1W9)
CSNK1A1L = CSNK1A1L (Homo sapiens, UniProt Q8N752)
Chain of CSNK1A1L (Q8N752 whole entry): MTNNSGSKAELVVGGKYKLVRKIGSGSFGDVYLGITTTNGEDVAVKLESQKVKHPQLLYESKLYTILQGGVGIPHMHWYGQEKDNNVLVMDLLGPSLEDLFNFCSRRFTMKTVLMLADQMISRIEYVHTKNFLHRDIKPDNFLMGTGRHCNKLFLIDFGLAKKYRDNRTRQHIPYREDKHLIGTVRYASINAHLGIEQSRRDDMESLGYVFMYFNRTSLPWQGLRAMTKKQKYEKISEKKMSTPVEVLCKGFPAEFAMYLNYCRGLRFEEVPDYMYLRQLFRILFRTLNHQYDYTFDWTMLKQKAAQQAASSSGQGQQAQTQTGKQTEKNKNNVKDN

DMPK2 = DMPK2 (Homo sapiens, UniProt Q6DT37)
CAMKK2 = CAMKK2 (Homo sapiens, UniProt Q96RR4)
MAST1 = MAST1 (Homo sapiens, UniProt Q9Y2H9)
MEK6 = MEK6 (Homo sapiens, UniProt P52564)
NEK2 = NEK2 (Homo sapiens, UniProt P51955)
Chain of NEK2 (P51955 whole entry): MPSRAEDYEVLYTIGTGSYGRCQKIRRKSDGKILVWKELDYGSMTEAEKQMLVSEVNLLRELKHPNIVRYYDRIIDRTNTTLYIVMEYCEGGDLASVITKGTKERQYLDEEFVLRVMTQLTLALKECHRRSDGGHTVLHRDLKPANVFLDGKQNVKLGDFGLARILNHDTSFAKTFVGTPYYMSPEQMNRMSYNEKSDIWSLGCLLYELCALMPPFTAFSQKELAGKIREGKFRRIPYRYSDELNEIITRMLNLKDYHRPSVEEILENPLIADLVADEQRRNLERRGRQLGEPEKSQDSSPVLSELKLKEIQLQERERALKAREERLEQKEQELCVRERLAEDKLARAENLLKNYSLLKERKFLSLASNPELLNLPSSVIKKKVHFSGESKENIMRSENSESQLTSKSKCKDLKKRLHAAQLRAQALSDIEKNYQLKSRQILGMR

CAMK2A = CAMK2A (Homo sapiens, UniProt Q9UQM7)
BUB1 = BUB1 (Homo sapiens, UniProt O43683)

Chain of p38-alpha (Q16539 whole entry): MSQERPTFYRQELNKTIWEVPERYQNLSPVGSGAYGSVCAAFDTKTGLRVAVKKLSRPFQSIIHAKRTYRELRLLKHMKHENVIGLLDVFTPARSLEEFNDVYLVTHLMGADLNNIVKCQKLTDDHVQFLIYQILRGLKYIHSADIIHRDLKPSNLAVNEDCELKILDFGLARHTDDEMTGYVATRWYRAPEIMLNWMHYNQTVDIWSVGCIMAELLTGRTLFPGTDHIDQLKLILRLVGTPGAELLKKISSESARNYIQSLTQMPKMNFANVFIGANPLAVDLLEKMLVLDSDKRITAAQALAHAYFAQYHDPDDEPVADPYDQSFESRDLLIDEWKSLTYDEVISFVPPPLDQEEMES
Chain of HUNK (P57058 whole entry): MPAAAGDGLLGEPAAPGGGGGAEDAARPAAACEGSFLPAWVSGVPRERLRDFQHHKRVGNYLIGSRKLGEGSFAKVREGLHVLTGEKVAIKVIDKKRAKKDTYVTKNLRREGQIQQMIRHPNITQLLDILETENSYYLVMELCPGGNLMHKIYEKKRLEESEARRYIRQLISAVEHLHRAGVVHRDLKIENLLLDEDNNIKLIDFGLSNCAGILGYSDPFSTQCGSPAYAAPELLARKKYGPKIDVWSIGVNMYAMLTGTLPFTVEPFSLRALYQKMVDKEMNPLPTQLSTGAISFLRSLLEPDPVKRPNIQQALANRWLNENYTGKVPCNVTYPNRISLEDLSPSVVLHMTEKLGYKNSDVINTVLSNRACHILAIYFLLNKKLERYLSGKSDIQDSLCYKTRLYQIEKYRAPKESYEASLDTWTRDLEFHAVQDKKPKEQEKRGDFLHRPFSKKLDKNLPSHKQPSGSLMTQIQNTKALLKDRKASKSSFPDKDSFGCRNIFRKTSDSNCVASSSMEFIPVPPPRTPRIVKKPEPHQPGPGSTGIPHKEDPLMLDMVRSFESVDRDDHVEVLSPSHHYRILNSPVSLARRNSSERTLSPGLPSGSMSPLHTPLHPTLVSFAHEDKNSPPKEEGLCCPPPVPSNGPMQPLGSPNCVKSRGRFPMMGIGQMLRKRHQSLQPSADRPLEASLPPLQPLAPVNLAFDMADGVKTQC
Chain of OSR1 (O95747 whole entry): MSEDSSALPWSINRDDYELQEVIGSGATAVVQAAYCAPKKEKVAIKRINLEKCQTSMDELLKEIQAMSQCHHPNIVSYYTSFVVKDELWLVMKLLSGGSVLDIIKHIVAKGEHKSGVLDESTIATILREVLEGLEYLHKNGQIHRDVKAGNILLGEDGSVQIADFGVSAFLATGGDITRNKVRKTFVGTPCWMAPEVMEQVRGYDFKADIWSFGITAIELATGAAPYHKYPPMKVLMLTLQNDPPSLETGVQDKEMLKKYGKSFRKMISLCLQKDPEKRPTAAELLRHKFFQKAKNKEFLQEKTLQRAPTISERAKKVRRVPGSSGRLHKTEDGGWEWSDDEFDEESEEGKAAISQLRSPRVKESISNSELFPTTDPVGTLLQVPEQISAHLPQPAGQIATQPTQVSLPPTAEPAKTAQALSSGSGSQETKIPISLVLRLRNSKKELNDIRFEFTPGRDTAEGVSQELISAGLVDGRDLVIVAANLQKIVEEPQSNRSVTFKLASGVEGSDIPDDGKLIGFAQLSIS

Question: For `CNc1ncc2cc(-c3ccc(-c4cccc(C)n4)cc3Cl)c(=O)n(C[C@H]3OC[C@H](N)CO3)c2n1` [compound 6, G-5555], which “Percent Control” value (OSR1) is on record?
Answer: The value was 99%.

Question: What about the “Percent Control” value (ITK) of the same compound?
Answer: Its value is 100%.

Question: And the “Percent Control” value (PIP4K2B)?
Answer: Its value is 68%.

Question: And the “Percent Control” value (PRKCQ)?
Answer: The value was 81%.

Question: And the “Percent Control” value (HUNK)?
Answer: The value was 100%.

Question: What about the “Percent Control” value (p38-alpha) of the same compound?
Answer: The value was 100%.

Question: What about the “Percent Control” value (RET(V804L)) of the same compound?
Answer: Its value is 94%.

Question: What about the “Percent Control” value (NEK4) of the same compound?
Answer: The value was 100%.

Question: What about the “Percent Control” value (SNARK) of the same compound?
Answer: Its value is 19%.

Question: And the “Percent Control” value (TTK)?
Answer: Its value is 100%.

Question: And the “Percent Control” value (DAPK3)?
Answer: Its value is 100%.

Question: What about the “Percent Control” value (MAPKAPK2) of the same compound?
Answer: The value was 100%.

Question: And the “Percent Control” value (PDGFRB)?
Answer: Its value is 97%.

Question: And the “Percent Control” value (KIT(L576P))?
Answer: Its value is 100%.

Question: What about the “Percent Control” value (RIOK1) of the same compound?
Answer: The value was 100%.

Question: What about the “Percent Control” value (WEE2) of the same compound?
Answer: The value was 100%.

Question: And the “Percent Control” value (AKT3)?
Answer: Its value is 95%.

Question: And the “Percent Control” value (AMPK-alpha2)?
Answer: The value was 93%.

Question: What about the “Percent Control” value (ULK1) of the same compound?
Answer: The value was 100%.

Question: And the “Percent Control” value (AMPK-alpha1)?
Answer: The value was 95%.

Question: And the “Percent Control” value (CSNK1D)?
Answer: The value was 90%.

Question: And the “Percent Control” value (EPHB1)?
Answer: The value was 100%.

Question: And the “Percent Control” value (PIM2)?
Answer: Its value is 100%.

Question: What about the “Percent Control” value (CSNK1A1L) of the same compound?
Answer: Its value is 100%.

Question: And the “Percent Control” value (DMPK2)?
Answer: Its value is 89%.

Question: What about the “Percent Control” value (CAMKK2) of the same compound?
Answer: Its value is 100%.

Question: And the “Percent Control” value (MAST1)?
Answer: Its value is 47%.

Question: And the “Percent Control” value (MEK6)?
Answer: The value was 80%.

Question: And the “Percent Control” value (NEK2)?
Answer: Its value is 100%.

Question: And the “Percent Control” value (CAMK2A)?
Answer: Its value is 79%.

Question: And the “Percent Control” value (BUB1)?
Answer: The value was 100%.
